Results on three compounds are retold here after patent publication US11629171B2, “Beta-hairpin peptidomimetics” (POLYPHOR AG, priority 2017, dated 2023).

What all share (type): cell-based
The subject of data set [1] is human red blood cells (hRBC). Put plainly: Hemolysis. The conditions noted are these: red cells of human, 1 h, 200. The method, then: The peptides were tested for their hemolytic activity against human red blood cells (hRBC). Fresh hRBC were washed four times with phosphate buffered saline (PBS) and centrifuged for 10 min at 3000×g. Compounds (200 μg/mL) were incubated with 20% hRBC (v/v) for 1 h at 37° C. and shaking at 300 rpm. A value of 0% and 100% cell lysis, respectively, was determined by incubation of hRBC in the presence of PBS containing 10% water and 2% Triton X-100 in H2O, respectively. The samples were centrifuged, the supernatants were ˜7.5-fold diluted in PBS buffer and the optical densities (OD) were measured at 540 nm and blank corrected. The 100% lysis value (OD540Triton X-100) gave an OD540 of approximately 0.5-1.0.
Percent hemolysis was calculated as follows: (OD540peptide/OD540Triton X-100)×100%.

Data set [2] relates to Acinetobacter baumannii DSM 30008. Conditions: DSM 30008. How it is done:
(§1) The in vitro antimicrobial activities of the peptides were determined in 96-well plates (Greiner, polystyrene) by the standard CLSI broth microdilution method (Clinical and Laboratory Standards Institute 2014. Performance standards for antimicrobial susceptibility testing, 24th informational supplement. Approved standard CLSI M100-S24; Clinical and Laboratory Standards Institute, Wayne, Pa.). The following microorganisms were used to determine antibiotic activity of the peptides: Escherichia coli ATCC 25922, Klebsiella pneumoniae SSI #3010^a), Acinetobacter baumannii DSM 30008, Pseudomonas aeruginosa ATCC 27853 and the clinical isolates Escherichia coli 926415^b), Klebsiella pneumoniae 968733^b), Acinetobacter baumannii 872842^b), Enterobacter cloacae 848840^b) and Escherichia coli MCR-1 Af45^c). Before preparation of inocula, Escherichia coli MCR-1 Af45 was subcultured on Mueller-Hinton II (MH-cation adjusted) agar containing 2 μg/mL colistin. ^a) Obtained from Statens Serum Institut (SSI), Copenhagen, Denmark^b) Obtained from International Health Management Associates, Inc. (IHMA Europe Sàrl), Epalinges, Switzerland^c) Obtained from Prof. Patrice Nordmann, University of Fribourg, Fribourg, Switzerland
(§2) Inocula of the microorganisms were diluted into Mueller-Hinton II (MH-cation adjusted) broth and compared with a 0.5 McFarland standard to give appr. 10^6 colony forming units (CFU)/mL. Aliquots (90 μL) of inoculum were added to 10 μL of MH-II broth+P-80 (Polysorbate 80, 0.002% final concentration, v/v) containing the peptide in serial two-fold dilutions. Antimicrobial activities of the peptides were expressed as the minimal inhibitory concentration (MIC) in μg/mL at which no visible growth was observed after 18-20 hours of incubation at 35° C.

Data set [3] concerns Escherichia coli ATCC 25922. The conditions noted are these: ATCC 25922. How it is done: as §1, §2
In data set [4] the test system is Pseudomonas aeruginosa ATCC 27853. The conditions noted are these: ATCC 27853. How it is done: as §1, §2
The test system of data set [5] is Acinetobacter baumannii 872842. Conditions: 872842. How it is done: as §1, §2
In data set [6] the test system is Klebsiella pneumoniae SSI #3010. Conditions: SSI #3010. How it is done: as §1, §2
In a further data set the test system is Escherichia coli 926415. Conditions: 926415. The method, then:
as §1, §2

In data set [7] the test system is Klebsiella pneumoniae 968733. Conditions: 968733. The method, then:
as §1, §2

Values after ≈ are worked out from the molar mass of the structure shown. Where a SMILES comes first, the peptide text is derived from it. Bridges are numbered along the chain shown (N, C = ends). Roman numbers before positions name the chains, in order. [ ]: non-standard residue; d: D form. The star is where a group is joined. Tle = CC(C)(C)[C@H](N)C(=O)O; Hiv = CC(C)[C@H](O)C(=O)O; dDab = NCC[C@@H](N)C(=O)O; NHCH(CH2OH)2 = OCC(CO)N*; Orn = NCCC[C@H](N)C(=O)O; Dab = NCC[C@H](N)C(=O)O; Dap = NC[C@H](N)C(=O)O Some results are limits rather than exact numbers.

Usually MIC stands for the least concentration at which growth counts as inhibited. Low readings indicate a more susceptible organism, high ones a less susceptible organism. As to `CC(C)C[C@@H]1NC(=O)[C@H](CCN)NC(=O)[C@H](CCN)NC(=O)[C@H](CC(C)C)NC(=O)[C@@H](CC(C)C)NC(=O)[C@H](CCN)NC(=O)[C@@H](NC(=O)[C@@H](CCN)NC(=O)CC[C@@H]2NC(=O)[C@H](CCCN)NC(=O)[C@H](CCN)NC(=O)[C@H](Cc3ccc(O)cc3)NC(=O)[C@@H](NC(=O)[C@@H](O)C(C)C)CSSC[C@@H](C(=O)N[C@H](C(N)=O)[C@@H](C)O)NC(=O)[C@H](C(C)(C)C)NC(=O)[C@H](CO)NC(=O)[C@H](Cc3c[nH]c4ccccc34)NC(=O)[C@H]([C@@H](C)O)NC2=O)CCNC1=O` [Ex. 164] (I: H-[Hiv]CY[Dab][Orn]ETWS[Tle]CT-NH2 / II: [dDab][Dab][Dab][dL]L[Dab][Dab]L; disulfide I:2-I:11; amide I:6-II:N; lactam II:2-II:C), the “Hemolysis at 200 μg/mL” value in data set [1] is on record as below 1%. The MIC in data set [2] is 0.5 µg/mL (≈ 0.223 µM); in data set [3], 0.5 µg/mL (≈ 0.223 µM); in data set [4], 1 µg/mL (≈ 0.447 µM); in data set [5], 2 µg/mL (≈ 0.893 µM); in data set [6], 0.5 µg/mL (≈ 0.223 µM); against Escherichia coli 926415, 0.25 µg/mL (≈ 0.112 µM). In data set [7], this compound showed an MIC of 1 µg/mL (≈ 0.447 µM).

Consider `CC(C)C[C@@H]1NC(=O)[C@@H](CC(C)C)NC(=O)[C@H](CCN)NC(=O)[C@@H](NC(=O)[C@H](CN)NC(=O)[C@@H](NC(=O)[C@H](CCN)NC(=O)CC[C@H]2NC(=O)[C@@H](CCN)NC(=O)[C@H](CCCN)NC(=O)[C@H](CCN)NC(=O)[C@H](Cc3ccc(O)cc3)NC(=O)[C@@H](NC(=O)[C@@H](O)C(C)C)CSSC[C@@H](C(=O)N[C@H](C(N)=O)[C@@H](C)O)NC(=O)[C@H](C(C)(C)C)NC(=O)[C@H](CO)NC(=O)[C@H](Cc3c[nH]c4ccccc34)NC2=O)[C@@H](C)O)CCNC(=O)[C@H]([C@@H](C)O)NC(=O)[C@H](CCN)NC(=O)[C@H](CCN)NC1=O` [Ex. 169] (I: H-[Hiv]CY[Dab][Orn][dDab][dE]WS[Tle]CT-NH2 / II: [Dab]T[Dap][Dab][Dab][dL]L[Dab][Dab]T; disulfide I:2-I:11; amide I:7-II:N; lactam II:4-II:C), for which the “Hemolysis at 200 μg/mL” value in data set [1] was below 1%. Moreover, the MIC in data set [2] came to 0.25 µg/mL (≈ 0.104 µM); in data set [3] it was 0.25 µg/mL (≈ 0.104 µM); in data set [4], 0.25 µg/mL (≈ 0.104 µM); in data set [5] it was 1 µg/mL (≈ 0.414 µM); in data set [6], 0.5 µg/mL (≈ 0.207 µM); with Escherichia coli 926415, 0.5 µg/mL (≈ 0.207 µM). The same compound came in with an MIC in data set [7] of 4 µg/mL (≈ 1.66 µM).

On to `CC(C)C[C@@H]1NC(=O)[C@@H](CC(C)C)NC(=O)[C@H](CCN)NC(=O)[C@@H](NC(=O)[C@H](CN)NC(=O)[C@@H](NC(=O)[C@H](CCN)NC(=O)CC[C@@H]2NC(=O)[C@H](CCCN)NC(=O)[C@H](CCN)NC(=O)[C@H](Cc3ccc(O)cc3)NC(=O)[C@@H](NC(=O)[C@@H](O)C(C)C)CSSC[C@@H](C(=O)NC(CO)CO)NC(=O)[C@H](C(C)(C)C)NC(=O)[C@H](CO)NC(=O)[C@H](Cc3c[nH]c4ccccc34)NC(=O)[C@H]([C@@H](C)O)NC2=O)[C@@H](C)O)CCNC(=O)[C@H]([C@@H](C)O)NC(=O)[C@H](CCN)NC(=O)[C@H](CCN)NC1=O` [Ex. 162] (I: H-[Hiv]CY[Dab][Orn]ETWS[Tle]C-{NHCH(CH2OH)2} / II: [Dab]T[Dap][Dab][Dab][dL]L[Dab][Dab]T; disulfide I:2-I:11; amide I:6-II:N; lactam II:4-II:C), for which the “Hemolysis at 200 μg/mL” value in data set [1] is below 1%. Besides, the MIC in data set [2] worked out at 0.25 µg/mL (≈ 0.105 µM); in data set [3], 0.125 µg/mL (≈ 0.0524 µM); in data set [4], 0.25 µg/mL (≈ 0.105 µM); in data set [5] it was 0.5 µg/mL (≈ 0.209 µM); in data set [6] it was 0.5 µg/mL (≈ 0.209 µM); against Escherichia coli 926415 it was 1 µg/mL (≈ 0.419 µM). Besides, the MIC in data set [7] worked out at 8 µg/mL (≈ 3.35 µM).
